According to ChEMBL document CHEMBL1128997, “Synthesis and antitumor activity of a new class of water soluble camptothecin derivatives” (Bioorg Med Chem Lett, 1996):

Legend:
DNA topoisomerase 1 = target: T1, DNA topoisomerase 1 (Homo sapiens, UniProt P11387); assay: Compound was tested in vitro for inhibition of topoisomerase I.
T1 sequence (P11387 whole entry): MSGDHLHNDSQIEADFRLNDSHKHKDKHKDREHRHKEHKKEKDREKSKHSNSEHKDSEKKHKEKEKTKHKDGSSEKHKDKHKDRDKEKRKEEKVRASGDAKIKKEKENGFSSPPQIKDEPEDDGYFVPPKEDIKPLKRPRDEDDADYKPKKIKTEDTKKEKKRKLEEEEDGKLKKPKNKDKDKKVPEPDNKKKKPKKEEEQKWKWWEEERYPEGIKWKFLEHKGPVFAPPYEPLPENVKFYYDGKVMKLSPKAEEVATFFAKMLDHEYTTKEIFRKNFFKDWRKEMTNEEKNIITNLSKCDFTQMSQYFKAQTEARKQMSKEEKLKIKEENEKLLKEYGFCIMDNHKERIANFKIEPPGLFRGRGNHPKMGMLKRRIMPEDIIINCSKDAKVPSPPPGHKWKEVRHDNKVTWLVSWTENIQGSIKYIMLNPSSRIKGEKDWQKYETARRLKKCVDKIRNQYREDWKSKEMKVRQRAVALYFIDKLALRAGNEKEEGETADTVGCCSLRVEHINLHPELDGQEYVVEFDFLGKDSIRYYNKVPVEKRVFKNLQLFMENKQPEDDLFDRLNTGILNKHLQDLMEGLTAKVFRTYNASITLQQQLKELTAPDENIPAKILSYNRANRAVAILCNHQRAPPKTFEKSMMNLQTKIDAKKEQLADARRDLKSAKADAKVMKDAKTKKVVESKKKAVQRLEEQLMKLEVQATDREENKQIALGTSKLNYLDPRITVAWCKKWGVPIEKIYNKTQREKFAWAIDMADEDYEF

Mus musculus [1] = assay: Activity against L1210 ascitic leukemia expressed as ratio of the median survival time of treated mice to that of untreated control X 100 after iv administration at a optimal dose of 15 mg/Kg; assay type: functional
Mus musculus [2] = assay: Activity against L1210 ascitic leukemia expressed as ratio of the median survival time of treated mice to that of untreated control X 100 after ip administration at a optimal dose of 10 mg/Kg; assay type: functional
L1210 = assay: Compound was tested in vitro for cytotoxicity against L1210 murine leukemia cells.; assay type: functional, cell-based; conditions: Mus musculus
Mus musculus [3] = assay: Activity against L1210 ascitic leukemia expressed as ratio of the median survival time of treated mice to that of untreated control X 100 after iv administration at a optimal dose of 2.5 mg/Kg; assay type: functional
Mus musculus [4] = assay: Activity against L1210 ascitic leukemia expressed as ratio of the median survival time of treated mice to that of untreated control X 100 after ip administration at a optimal dose of 1.5 mg/Kg; assay type: functional
Mus musculus [5] = assay: Activity against L1210 ascitic leukemia expressed as ratio of the median survival time of treated mice to that of untreated control X 100 after ip administration at a optimal dose of 15 mg/Kg; assay type: functional
Mus musculus [6] = assay: Activity against L1210 ascitic leukemia expressed as ratio of the median survival time of treated mice to that of untreated control X 100 after iv administration at a optimal dose of 20 mg/Kg; assay type: functional

SMILES	IC50 (DNA topoisomerase 1) [µM]	T/C (Mus musculus [1]) [%]	T/C (Mus musculus [2]) [%]	IC50 (L1210) [µM]	T/C (Mus musculus [3]) [%]	T/C (Mus musculus [4]) [%]	T/C (Mus musculus [5]) [%]	T/C (Mus musculus [6]) [%]
CC[C@@]1(O)C(=O)OCc2c1cc1n(c2=O)Cc2cc3c(N/C=N/C)cccc3nc2-1.Cl	6.6	167	169	0.052				
CC[C@@]1(O)C(=O)OCc2c1cc1n(c2=O)Cc2cc3cc(/N=C/N(C)C)ccc3nc2-1	42			0.0945				
CC[C@@]1(O)C(=O)OCc2c1cc1n(c2=O)Cc2cc3c(/N=C/N4CCOCC4)cccc3nc2-1	69			0.125				
CC[C@@]1(O)C(=O)OCc2c1cc1n(c2=O)Cc2cc3c(/N=C(\C)N(C)C)cccc3nc2-1	3.5			0.689				
CCc1c2c(nc3cccc(/N=C/N(C)C)c13)-c1cc3c(c(=O)n1C2)COC(=O)[C@]3(O)CC	3.6			0.0524				
CC[C@@]1(O)C(=O)OCc2c1cc1n(c2=O)Cc2cc3c(N)cccc3nc2-1 [9-AMINOCAMPTOTHECIN]	4.2			0.0127	138	163		
CC[C@@]1(O)C(=O)OCc2c1cc1n(c2=O)Cc2cc3c(/N=C/N(C)C)cccc3nc2-1.Cl	19.2			0.108			175	200
CC[C@@]1(O)C(=O)OCc2c1cc1n(c2=O)Cc2cc3c(NC=N)cccc3nc2-1.Cl	20.4	143		0.0925			219	
CC[C@@]1(O)C(=O)OCc2c1cc1n(c2=O)Cc2cc3c(/N=C/N(C)c4ccccc4)cccc3nc2-1	2.2			0.0281				
